According to patent publication US20200016136A1 (VIIV HEALTHCARE UK (NO. 5) LIMITED, priority 2017, published 2020):
pEC50: −log10 of the molar value.

Tested on: NL-RLuc virus (recombinant NL4-3 HIV with Renilla Luciferase gene)
Assay: Inhibition of HIV replication (NL-RLuc virus in MT-2 cells, luciferase readout)
Format: cell-based, Human immunodeficiency virus (HIV)
Conditions: MT2, 120 h
In short: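 MT-2 cells infected with NL4-3-derived virus carrying Renilla luciferase in place of part of nef, grown 5 days with serial compound dilutions in RPMI 1640/10% FBS. Virus growth read as luciferase expression. EC50 from median effect equation, at least 2 experiments.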

Question: `Cc1nc(C)c([C@H](OC(C)(C)C)C(=O)O)c(N2CCC(C)(C)CC2)c1-c1ccc2c(c1)CCN(c1ncnc(N3CCC(CCO)CC3)n1)C2` [Example 63, (S)-2-(tert-Butoxy)-2-(4-(4,4-dimethylpiperidin-1-yl)-5-(2-(4-(4-(2-hydroxyethyl)piperidin-1-yl)-1,3,5-triazin-2-yl)-1,2,3,4-tetrahydroisoquinolin-6-yl)-2,6-dimethylpyridin-3-yl)acetic Acid] was tested. Which pEC50 did it give?
Answer: Its pEC50 is 8.40.

Question: How did the pEC50 turn out when `Cc1cccc(Cl)c1CN1CCc2cc(-c3c(CF)nc(C)c([C@H](OC(C)(C)C)C(=O)O)c3N3CCC(C)(C)CC3)ccc2C1` [Example 158, (S)-2-(tert-Butoxy)-2-(5-(2-(2-chloro-6-methylbenzyl)-1,2,3,4-tetrahydroisoquinolin-6-yl)-4-(4,4-dimethylpiperidin-1-yl)-6-(fluoromethyl)-2-methylpyridin-3-yl)acetic Acid] was run?
Answer: The pEC50 was 8.30.

Question: How did the pEC50 turn out when `CC1(C)CCN(c2c(-c3ccc4c(c3)CCN(c3ncnc5c3oc3ncccc35)C4)c(CO)nc(Cl)c2[C@H](OC(C)(C)C)C(=O)O)CC1` [Example 115, (S)-2-(tert-Butoxy)-2-(2-chloro-4-(4,4-dimethylpiperidin-1-yl)-6-(hydroxymethyl)-5-(2-(pyrido[3′,2′:4,5]furo[3,2-d]pyrimidin-4-yl)-1,2,3,4-tetrahydroisoquinolin-6-yl)pyridin-3-yl)acetic Acid] was run?
Answer: The pEC50 was 9.00.

Question: How did the pEC50 turn out when `Cc1nc(C)c([C@H](OC(C)(C)C)C(=O)O)c(N2CCC(C)(C)CC2)c1-c1ccc2c(c1)CCN(c1nccc(N3CCC(CC(C)(C)O)CC3)n1)C2` [Example 145, (S)-2-(tert-Butoxy)-2-(4-(4,4-dimethylpiperidin-1-yl)-5-(2-(4-(4-(2-hydroxy-2-methylpropyl)piperidin-1-yl)pyrimidin-2-yl)-1,2,3,4-tetrahydroisoquinolin-6-yl)-2,6-dimethylpyridin-3-yl)acetic Acid] was run?
Answer: Its pEC50 is 8.00.

Question: With `Cc1nc(C)c([C@H](OC(C)(C)C)C(=O)O)c(N2CCC(C)(C)CC2)c1-c1ccc2c(c1)CCN(c1ccnc(N3C4COCC3COC4)n1)C2` [Example 34, (2S)-2-(tert-Butoxy)-2-[4-(4,4-dimethylpiperidin-1-yl)-5-[2-(2-{3,7-dioxa-9-azabicyclo[3.3.1]nonan-9-yl}pyrimidin-4-yl)-1,2,3,4-tetrahydroisoquinolin-6-yl]-2,6-dimethylpyridin-3-yl]acetic Acid] as the compound, how does the pEC50 read?
Answer: The pEC50 was 8.30.

Question: With `Cc1nc(C)c([C@H](OC(C)(C)C)C(=O)O)c(N2CCC(C)(C)CC2)c1-c1ccc2c(c1)CCN(c1nccc(N3C4CCCC3COC4)n1)C2` [Example 35, (2S)-2-(tert-Butoxy)-2-[4-(4,4-dimethylpiperidin-1-yl)-2,6-dimethyl-5-[2-(4-{3-oxa-9-azabicyclo[3.3.1]nonan-9-yl}pyrimidin-2-yl)-1,2,3,4-tetrahydroisoquinolin-6-yl]pyridin-3-yl]acetic Acid] as the compound, how does the pEC50 read?
Answer: The pEC50 was 8.52.

Question: With `Cc1nc(C)c([C@H](OC(C)(C)C)C(=O)O)c(N2CCC(C)(C)CC2)c1-c1ccc2c(c1)CCN(c1nccc(-c3cccnc3)n1)C2` [Example 105, (S)-2-(tert-Butoxy)-2-(4-(4,4-dimethylpiperidin-1-yl)-2,6-dimethyl-5-(2-(4-(pyridin-3-yl)pyrimidin-2-yl)-1,2,3,4-tetrahydroisoquinolin-6-yl)pyridin-3-yl)acetic Acid] as the compound, how does the pEC50 read?
Answer: Its pEC50 is 9.00.

Question: With `Cc1nc(C)c([C@H](OC(C)(C)C)C(=O)O)c(N2CCC(C)(C)CC2)c1-c1ccc2c(c1)CCN(c1cc(N3C[C@@H](C)O[C@@H](C)C3)ncn1)C2` [Example 130, (S)-2-(tert-Butoxy)-2-(5-(2-(6-((2S,6R)-2,6-dimethylmorpholino)pyrimidin-4-yl)-1,2,3,4-tetrahydroisoquinolin-6-yl)-4-(4,4-dimethylpiperidin-1-yl)-2,6-dimethylpyridin-3-yl)acetic Acid] as the compound, how does the pEC50 read?
Answer: Its pEC50 is 8.30.

Question: How did the pEC50 turn out when `Cc1nc(NC2CCN(C)CC2)c(-c2ccc3c(c2)CCN(c2ncnc4c2oc2ccccc24)C3)c(N2CCC(C)(C)CC2)c1[C@H](OC(C)(C)C)C(=O)O` [Example 12, (S)-2-(5-(2-(Benzofuro[3,2-d]pyrimidin-4-yl)-1,2,3,4-tetrahydroisoquinolin-6-yl)-4-(4,4-dimethylpiperidin-1-yl)-2-methyl-6-((1-methylpiperidin-4-yl)amino)pyridin-3-yl)-2-(tert-butoxy)acetic Acid] was run?
Answer: The pEC50 was 9.00.

Question: `Cc1ncc(-c2ccc3c(c2)CCN(c2ncnc4c2oc2ccccc24)C3)c(N2CCC(C)(C)CC2)c1[C@H](OC(C)(C)C)C(=O)O` [Example 49, (2S)-2-(tert-Butoxy)-2-[4-(4,4-dimethylpiperidin-1-yl)-2-methyl-5-(2-{8-oxa-3,5-diazatricyclo[7.4.0.0^2,7]trideca-1(9),2(7),3,5,10,12-hexaen-6-yl}-1,2,3,4-tetrahydroisoquinolin-6-yl)pyridin-3-yl]acetic Acid] was tested. Which pEC50 did it give?
Answer: The pEC50 was 9.00.

Question: How did the pEC50 turn out when `Cc1cccc(Cl)c1CN1CCc2cc(-c3c(CNCCCCCCc4ccccc4)nc(C)c([C@H](OC(C)(C)C)C(=O)O)c3N3CCC(C)(C)CC3)ccc2C1` [Example 157, (S)-2-(tert-Butoxy)-2-(5-(2-(2-chloro-6-methylbenzyl)-1,2,3,4-tetrahydroisoquinolin-6-yl)-4-(4,4-dimethylpiperidin-1-yl)-2-methyl-6-(((6-phenylhexyl)amino)methyl)pyridin-3-yl)acetic Acid] was run?
Answer: Its pEC50 is 6.47.

Question: `Cc1nc(CO)c(-c2ccc3c(c2)CCN(c2nccc(-c4cnccn4)n2)C3)c(N2CCC(C)(C)CC2)c1[C@H](OC(C)(C)C)C(=O)O` [Example 165, (S)-2-(tert-Butoxy)-2-(4-(4,4-dimethylpiperidin-1-yl)-6-(hydroxymethyl)-2-methyl-5-(2-(4-(pyrazin-2-yl)pyrimidin-2-yl)-1,2,3,4-tetrahydroisoquinolin-6-yl)pyridin-3-yl)acetic Acid] was tested. Which pEC50 did it give?
Answer: The pEC50 was 8.70.

Question: How did the pEC50 turn out when `Cc1nc(C)c([C@H](OC(C)(C)C)C(=O)O)c(N2CCC(C)(C)CC2)c1-c1ccc2c(c1)CCN(c1ccnc(N3CCC(F)(F)CC3)n1)C2` [Example 76, (S)-2-(tert-Butoxy)-2-(5-(2-(2-(4,4-difluoropiperidin-1-yl)pyrimidin-4-yl)-1,2,3,4-tetrahydroisoquinolin-6-yl)-4-(4,4-dimethylpiperidin-1-yl)-2,6-dimethylpyridin-3-yl)acetic Acid] was run?
Answer: The pEC50 was 8.52.

Question: With `Cc1nc(C)c([C@H](OC(C)(C)C)C(=O)O)c(N2CCC(C)(C)CC2)c1-c1ccc2c(c1)CCN(c1nccc(N3C4CCC3CN(C)C4)n1)C2` [Example 43, (2S)-2-(tert-Butoxy)-2-[4-(4,4-dimethylpiperidin-1-yl)-2,6-dimethyl-5-[2-(4-{3-methyl-3,8-diazabicyclo[3.2.1]octan-8-yl}pyrimidin-2-yl)-1,2,3,4-tetrahydroisoquinolin-6-yl]pyridin-3-yl]acetic Acid] as the compound, how does the pEC50 read?
Answer: Its pEC50 is 8.52.

Question: `Cc1nc(C)c([C@H](OC(C)(C)C)C(=O)O)c(N2CCC(C)(C)CC2)c1-c1ccc2c(c1)CCN(c1cc(N3CCOCC3)c(F)cn1)C2` [Example 91, (S)-2-(tert-Butoxy)-2-(4-(4,4-dimethylpiperidin-1-yl)-5-(2-(5-fluoro-4-morpholinopyridin-2-yl)-1,2,3,4-tetrahydroisoquinolin-6-yl)-2,6-dimethylpyridin-3-yl)acetic Acid] was tested. Which pEC50 did it give?
Answer: The pEC50 was 8.05.

Question: `Cc1nc(C)c([C@H](OC(C)(C)C)C(=O)O)c(N2CCC(C)(C)CC2)c1-c1ccc2c(c1)CCN(c1ncnc(N3C[C@@H](C)O[C@@H](C)C3)n1)C2` [Example 68, (S)-2-(tert-Butoxy)-2-(5-(2-(4-((2R,6S)-2,6-dimethylmorpholino)-1,3,5-triazin-2-yl)-1,2,3,4-tetrahydroisoquinolin-6-yl)-4-(4,4-dimethylpiperidin-1-yl)-2,6-dimethylpyridin-3-yl)acetic Acid] was tested. Which pEC50 did it give?
Answer: Its pEC50 is 9.00.

Question: With `Cc1nc(NCCCN2CCN(C)CC2)c(-c2ccc3c(c2)CCN(c2ncnc4c2oc2ccccc24)C3)c(N2CCC(C)(C)CC2)c1[C@H](OC(C)(C)C)C(=O)O` [Example 16, (S)-2-(5-(2-(Benzofuro[3,2-d]pyrimidin-4-yl)-1,2,3,4-tetrahydroisoquinolin-6-yl)-4-(4,4-dimethylpiperidin-1-yl)-2-methyl-6-((3-(4-methylpiperazin-1-yl)propyl)amino)pyridin-3-yl)-2-(tert-butoxy)acetic Acid] as the compound, how does the pEC50 read?
Answer: Its pEC50 is 8.70.

Question: `CC1(C)CCN(c2c(-c3ccc4c(c3)CCN(c3ncnc5c3oc3ccccc35)C4)cnc(Cl)c2[C@H](OC(C)(C)C)C(=O)O)CC1` [Example 103, (S)-2-(5-(2-(Benzofuro[3,2-d]pyrimidin-4-yl)-1,2,3,4-tetrahydroisoquinolin-6-yl)-2-chloro-4-(4,4-dimethylpiperidin-1-yl)pyridin-3-yl)-2-(tert-butoxy)acetic Acid] was tested. Which pEC50 did it give?
Answer: The pEC50 was 8.70.

Question: How did the pEC50 turn out when `Cc1nc(C)c([C@H](OC(C)(C)C)C(=O)O)c(N2CCC(C)(C)CC2)c1-c1ccc2c(c1)CCN(Cc1ccccc1)C2` [Example 52, (2S)-2-[5-(2-Benzyl-1,2,3,4-tetrahydroisoquinolin-6-yl)-4-(4,4-dimethylpiperidin-1-yl)-2,6-dimethylpyridin-3-yl]-2-(tert-butoxy)acetic Acid] was run?
Answer: Its pEC50 is 8.52.

Question: How did the pEC50 turn out when `Cc1nc(C)c([C@H](OC(C)(C)C)C(=O)O)c(N2CCC(C)(C)CC2)c1-c1ccc2c(c1)CCN(c1nccc(N3CCC3)n1)C2` [Example 19, (2S)-2-(5-{2-[4-(Azetidin-1-yl)pyrimidin-2-yl]-1,2,3,4-tetrahydroisoquinolin-6-yl}-4-(4,4-dimethylpiperidin-1-yl)-2,6-dimethylpyridin-3-yl)-2-(tert-butoxy)acetic Acid] was run?
Answer: The pEC50 was 9.00.

Question: How did the pEC50 turn out when `Cc1nc(C)c([C@H](OC(C)(C)C)C(=O)O)c(N2CCC(C)(C)CC2)c1-c1ccc2c(c1)CCN(c1ccnc(N3CCOCC3)n1)C2` [Example 57, (S)-2-(tert-Butoxy)-2-(4-(4,4-dimethylpiperidin-1-yl)-2,6-dimethyl-5-(2-(2-morpholinopyrimidin-4-yl)-1,2,3,4-tetrahydroisoquinolin-6-yl)pyridin-3-yl)acetic Acid] was run?
Answer: The pEC50 was 9.30.

Question: With `CCC(C)(C)O[C@H](C(=O)O)c1c(C)ncc(-c2ccc3c(c2)CCN(Cc2c(C)cccc2Cl)C3)c1N1CCC(C)(C)CC1` [Example 53, (2S)-2-(5-{2-[(2-Chloro-6-methylphenyl)methyl]-1,2,3,4-tetrahydroisoquinolin-6-yl}-4-(4,4-dimethylpiperidin-1-yl)-2-methylpyridin-3-yl)-2-[(2-methylbutan-2-yl)oxy]acetic Acid] as the compound, how does the pEC50 read?
Answer: Its pEC50 is 8.22.
